Experimental findings from US12291529B2, “Heterocyclic GLP-1 agonists” (Gasherbrum Bio, Inc., priority 2023, dated 2025) are described below.

Data set [1] deals with GLP-1 Receptor (Homo sapiens, UniProt P43220). Kind of data set: GLP-1R agonist cAMP stimulation assay (HEK293/GLP1R/CRE-LUC cells, Cisbio cAMP dynamic 2 kit). It counts as cell-based. In a few lines:
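cAMP was measured by HTRF (d2/cryptate, 1 h RT, 665 and 615 nm). Beforehand, compounds in half-log series were incubated 30 min at 37 °C with GLP-1R/CRE-Luc HEK293 cells (1000 per well) in IBMX (0.5 mM)-containing DPBS/BSA. Activity scaled between vehicle and maximal control.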

Data set [2] in a line: Caco-2 permeability / efflux study. It counts as in vitro ADME. The note with it: human; for Papp at 2 h, 10 μM: Caco-2, pH 7.4, 10 μM, 37° C., pH 7.4, 0.5% BSA, read-out: Caco-2 Perm; for efflux ratio at 2 h, 10 μM: Caco-2, pH 7.4, Caco-2 efflux ratio. As to the method:
Incubations with Caco-2 cell monolayers were performed in duplicate in a 96-well Transwell plate. Transport buffer solution (HBSS, 10 mM HEPES, pH 7.4, with 0.5% BSA) containing test article (10 μM), and either the control compounds metoprolol (10 μM), cimetidine (10 μM) and erythromycin (10 μM), was added to appropriate donor wells of the apical or basolateral plate. The transport buffer with DMSO was added to appropriate wells of receiver wells. Following incubation at 37° C. for 2 hours, the cell plates were removed and 50 μL samples from both apical and basolateral sides were transferred into new 96-well plates. Subsequently, 200 μL of acetonitrile containing internal standard was added to all samples to precipitate protein prior to analysis by UPLC-MS/MS. Lucifer yellow was used as a marker to confirm the integrity of the cell monolayers after 2 hours incubation.

Data set [3] is described as follows: Rat IV/PO PK study, Method A. It counts as in vivo, male Sprague Dawley (SD) rats. As to the method: Pharmacokinetics (PK) study was conducted on male Sprague Dawley (SD) rats by two delivery routes intravenous (IV) and/or oral gavage (PO). Rats in IV route (n=3) were free access to food and water. Rats in PO route (n=3) were fasted overnight and fed at 4 hrs post dosing. Test article was formulated in solution (10% solutol HS 15 in saline) for IV route and solution or suspension (10% solutol HS 15 in saline/water) for PO route, respectively. On the day of experiment, test article was administered via vein (e.g. foot dorsal vein) injection (commonly at 1 mg/kg and 5 mL/kg) for IV route or via oral gavage (commonly at 2 or 5 mg/kg and 5 mL/kg) for PO route, respectively. Blood samples were collected via serial bleeding at ˜8 time points from 0.083 to 24 hrs post dose. Approximate 150 μL of blood/time point was collected into K2EDTA tube via tail vein or jugular vein. Blood samples were put on wet ice and centrifuged to obtain plasma samples and plasma samples were submitted to LC-MS/MS for sample analysis. Pharmacokinetics parameters, including elimination half life (t1/2) (IV), area under the curve (AUC) and oral bioavailability (F %), etc. were calculated by non-compartmental model using WinNonlin.

Data set [4] is described as follows: FaSSIF solubility. It counts as physicochemical. The note with it: FaSSIF buffer, 25 °C, fassif, thermodynamic from solid. As to the method:
Stock solution of test article and control compound (chlorpromazine, astemizole, and phenytoin) were prepared in DMSO at 10 mM. 50 μL each of stock solutions were dried down, followed by reconstitution to 1 mM with FaSSIF buffer in the well. The incubation plate was shaked at 25° C., 1,100 rpm for 4 hours. And then, the samples were filtered by using the vacuum manifold. 10 μL aliquots from each well was transferred to a new 96-well plate and adjust the volume to 80 μL with blank buffer. Using a mixture of H2O and acetonitrile containing internal standard (1:1) to dilute the sample 100-fold, 500-fold and 2,500-fold. The samples are evaluated by LC/MS/MS analysis. All compounds were tested in singlet.

Setting [5] is: Table 3, HEK293/GLP1R/CRE-LUC cells, 30 min.

Molecules are shown by their SMILES. pEC50: −log10 of the molar value. Converted amounts (≈) assume the structure as drawn.

GLP-1 Receptor, sequence (P43220 24-463, species assumed): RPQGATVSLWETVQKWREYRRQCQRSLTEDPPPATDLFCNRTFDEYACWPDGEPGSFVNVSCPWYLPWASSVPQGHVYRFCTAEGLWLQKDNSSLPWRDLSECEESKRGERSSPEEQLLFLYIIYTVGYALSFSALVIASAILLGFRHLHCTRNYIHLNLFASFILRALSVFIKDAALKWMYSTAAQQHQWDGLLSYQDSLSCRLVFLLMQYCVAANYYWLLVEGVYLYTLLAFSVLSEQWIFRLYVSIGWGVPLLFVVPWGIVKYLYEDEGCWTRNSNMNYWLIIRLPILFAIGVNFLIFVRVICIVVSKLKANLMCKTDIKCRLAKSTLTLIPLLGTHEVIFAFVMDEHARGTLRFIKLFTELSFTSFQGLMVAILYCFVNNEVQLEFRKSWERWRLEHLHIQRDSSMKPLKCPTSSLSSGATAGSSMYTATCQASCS

As usually defined, the pEC50 is the EC50 on a negative log10 scale, so that one unit is a factor of ten. A lower pEC50 goes with a large EC50. Usually efflux ratio stands for a quotient of directional permeabilities that is used to spot active efflux. In turn, `CCS(=O)(=NC)c1ccc(-n2ccn(-c3c4c(nn3-c3cc(C)c(F)c(C)c3)CCN(C(=O)c3cc5cc(C6CCOCC6)ccc5n3[C@@]3(c5noc(=O)[nH]5)C[C@@H]3C)[C@H]4C)c2=O)c(Cl)c1` (single isomer, unassigned) [Compound 151] showed a pEC50 in data set [1] (setting [5]) of 10.14. Besides, the pEC50 in data set [1] (Table 4) is 10.14. Moreover, in data set [2], the Papp at 2 h, 10 μM was determined as 0.3 ×10⁻⁶ cm/s and the efflux ratio at 2 h, 10 μM stood at 36.8.

Molecule `Cc1cc(-n2nc3c(c2-n2ccn(-c4ccc(S(=N)(=O)C5CCC5)cc4F)c2=O)[C@H](C)N(C(=O)c2cc4cc(C5CCOCC5)ccc4n2[C@@]2(c4noc(=O)[nH]4)C[C@@H]2C)CC3)cc(C)c1F` (single isomer, unassigned) [Compound 168] had a pEC50 in data set [1] (setting [5]) of 10.96. Also, in data set [1] (Table 4), the pEC50 was 10.96. In data set [2], the Papp at 2 h, 10 μM amounted to 0.21 ×10⁻⁶ cm/s and the efflux ratio at 2 h, 10 μM amounted to 50.

A word on the half-life: it is the time needed for the level to fall by half in the phase considered. Low values mean rapid decline, high ones slow decline. In the case of `Cc1cc(-n2nc3c(c2-n2ccn(-c4ccc(S(=N)(=O)C5CC5)cc4F)c2=O)[C@H](C)N(C(=O)c2cc4cc([C@H]5CCOC(C)(C)C5)ccc4n2[C@@]2(c4noc(=O)[nH]4)C[C@@H]2C)CC3)cc(C)c1F` (single isomer, unassigned) [Compound 181], the pEC50 in data set [1] (setting [5]) is 10.74; in data set [1] (Table 4), 10.85. Besides, the Papp at 2 h, 10 μM in data set [2] was 0.24 ×10⁻⁶ cm/s. In data set [2], the efflux ratio at 2 h, 10 μM is 38. In data set [3] (PO, 5 mpk, free form), the “AUC (ng · h/mL)_free form/dose” value is reported as 6,097/5 mpk ng · h/mL. Besides, the half-life in data set [3] (male, Sprague Dawley, plasma, 1 mg/kg, elimination half life (IV), Method A) is 1.66 h. Further, the bioavailability in data set [3] (male, Sprague Dawley, plasma, PO vs IV, Method A, read-out: Bioavailablility (% F)) came out at 30%.

`Cc1cc(-n2nc3c(c2-n2ccn(-c4ccc(S(=N)(=O)C5CCC5)cc4F)c2=O)[C@H](C)N(C(=O)c2cc4cc([C@H]5CCOC(C)(C)C5)ccc4n2[C@@]2(c4noc(=O)[nH]4)C[C@@H]2C)CC3)cc(C)c1F` (single isomer, unassigned) [Compound 183]: the pEC50 in data set [1] (setting [5]) was 12.00; in data set [1] (Table 4) it was 10.96. Also, the Papp at 2 h, 10 μM in data set [2] is 0.19 ×10⁻⁶ cm/s. For the same molecule, in data set [2], the efflux ratio at 2 h, 10 μM was 45.

For the molecule `CN=S(=O)(c1ccc(-n2ccn(-c3c4c(nn3-c3cc(C)c(F)c(C)c3)CCN(C(=O)c3cc5cc([C@H]6CCOC(C)(C)C6)ccc5n3[C@@]3(c5noc(=O)[nH]5)C[C@@H]3C)[C@H]4C)c2=O)cc1NC)C1CC1` (single isomer, unassigned) [Compound 218], the pEC50 in data set [1] (setting [5]) is 10.08. This molecule gave a pEC50 in data set [1] (Table 4) of 10.23. Also, in data set [2], the Papp at 2 h, 10 μM came to 0.09 ×10⁻⁶ cm/s and the efflux ratio at 2 h, 10 μM was determined as 20.7.

In data set [1] (setting [5]), `Cc1cc(-n2nc3c(c2-n2ccn(-c4ccc(S(C)(=N)=O)cc4)c2=O)[C@H](C)N(C(=O)c2cc4cc(C5CCOCC5)ccc4n2[C@@]2(c4noc(=O)[nH]4)C[C@@H]2C)CC3)cc(C)c1F` (stereo partly shown) [Compound 110] gave a pEC50 of 10.55.

In data set [1] (setting [5]), `Cc1cc(-n2nc3c(c2-n2ccn(-c4ccc(CS(C)(=N)=O)cc4)c2=O)[C@H](C)N(C(=O)c2cc4cc(C5CCOCC5)ccc4n2[C@@]2(c4noc(=O)[nH]4)C[C@@H]2C)CC3)cc(C)c1F` (stereo partly drawn) [Compound 111, 3-[(1S,2S)-1-(2-{[(4S)-3-[3-(4-{[azanylidene(methyl)(oxo)-λ^6-sulfanyl]methyl}phenyl)-2-oxoimidazol-1-yl]-2-(4-fluoro-3,5-dimethylphenyl)-4-methyl-4,5,6,7-tetrahydropyrazolo[4,3-c]pyridin-5-yl]carbonyl}-5-(3,4,5,6-tetrahydro-2H-pyran-4-yl)indol-1-yl)-2-methylcyclopropyl]-4H,5H-1,2,4-oxadiazol-5-one] had a pEC50 of 10.85.

As to `C[C@H]1c2c(nn(-c3ccc(F)c(C4CC4)c3)c2-n2ccn(-c3ccc(S(C)(=N)=O)cc3)c2=O)CCN1C(=O)c1cc2cc(C3CCOCC3)ccc2n1[C@@]1(c2noc(=O)[nH]2)C[C@@H]1C` (stereo partly shown) [Compound 118], the pEC50 in data set [1] (setting [5]) was 10.40.

On to `Cc1cc(-n2nc3c(c2-n2ccn(-c4ccc(S(C)(=N)=O)cc4)c2=O)[C@H](C)N(C(=O)c2cc4cc(C5CCOCC5)ccc4n2-c2cccc(S(=O)(=O)Nc4ncccn4)c2)CC3)cc(C)c1F` (stereo partly shown) [Compound 119], for which the pEC50 in data set [1] (setting [5]) is 9.00.

`COc1cc(-n2ccn(-c3c4c(nn3-c3cc(C)c(F)c(C)c3)CCN(C(=O)c3cc5cc(C6CCOCC6)ccc5n3[C@@]3(c5noc(=O)[nH]5)C[C@@H]3C)[C@H]4C)c2=O)ccc1S(C)(=N)=O` (stereo partly drawn) [Compound 123, 3-[(1S,2S)-1-(2-{[(S)-2-(4-fluoro-3,5-xylyl)-3-{3-[4-(iminomethyloxothio)-3-methoxyphenyl]-2-oxo-1,3-dihydro-1-imidazolyl}-4-methyl-4,5,6,7-tetrahydro-2H-1,2,5-triazainden-5-yl]carbonyl}-5-(tetrahydro-2H-pyran-4-yl)-1-indolyl)-2-methylcyclopropyl]-1,2,4-oxadiazol-5(4H)-one] had a pEC50 in data set [1] (setting [5]) of 10.15.

On to `Cc1cc(-n2ccn(-c3c4c(nn3-c3cc(C)c(F)c(C)c3)CCN(C(=O)c3cc5cc(C6CCOCC6)ccc5n3[C@@]3(c5noc(=O)[nH]5)C[C@@H]3C)[C@H]4C)c2=O)ccc1S(C)(=N)=O` (stereo partly shown) [Compound 124], for which the pEC50 in data set [1] (setting [5]) is 11.00.

As to `CCS(=O)(=NC)c1ccc(-n2ccn(-c3c4c(nn3-c3cc(C)c(F)c(C)c3)CCN(C(=O)c3cc5cc(C6CCOCC6)ccc5n3CC3CCCO3)[C@H]4C)c2=O)cc1` (stereo partly shown) [Compound 163], the negative-log EC50 (pEC50) in data set [1] (setting [5]) was 7.70.

Take `Cc1cc(-n2nc3c(c2-n2ccn(-c4ccc5c(c4)CS(C)(=O)=N5)c2=O)[C@H](C)N(C(=O)c2cc4cc(C5CCOCC5)ccc4n2[C@@]2(c4noc(=O)[nH]4)C[C@@H]2C)CC3)cc(C)c1F` (stereo partly shown) [Compound 225]: in data set [1] (setting [5]), the pEC50 was 10.55.

Regarding `Cc1cc(-n2nc3c(c2-n2ccn(-c4ccc(OC5CCS(=N)(=O)CC5)cc4)c2=O)[C@H](C)N(C(=O)c2cc4cc(C5CCOCC5)ccc4n2[C@@]2(c4noc(=O)[nH]4)C[C@@H]2C)CC3)cc(C)c1F` (stereo partly drawn) [Compound 226, 3-((1S,2S)-1-(2-((S)-2-(4-fluoro-3,5-dimethylphenyl)-3-(3-(4-((1-imino-1-oxidohexahydro-1λ^6-thiopyran-4-yl)oxy)phenyl)-2-oxo-2,3-dihydro-1H-imidazol-1-yl)-4-methyl-4,5,6,7-tetrahydro-2H-pyrazolo[4,3-c]pyridine-5-carbonyl)-5-(tetrahydro-2H-pyran-4-yl)-1H-indol-1-yl)-2-methylcyclopropyl)-1,2,4-oxadiazol-5(4H)-one], the pEC50 in data set [1] (setting [5]) is 10.60. The pEC50 values of the last two molecules are within 0.2 log units of each other.

Molecule `Cc1cc(-n2nc3c(c2-n2ccn(-c4ccc5c(c4)CS(C)(=O)=N5)c2=O)[C@H](C)N(C(=O)c2cc4cc([C@H]5CCOC(C)(C)C5)ccc4n2[C@@]2(c4noc(=O)[nH]4)C[C@@H]2C)CC3)cc(C)c1F` (stereo partly drawn) [Compound 227, 5-{3-[(4S)-2-(4-fluoro-3,5-dimethylphenyl)-5-({5-[(4S)-2,2-dimethyl-3,4,5,6-tetrahydro-2H-pyran-4-yl]-1-[(1S,2S)-2-methyl-1-(5-oxo-4H-1,2,4-oxadiazol-3-yl)cyclopropyl]indol-2-yl}carbonyl)-4-methyl-4,5,6,7-tetrahydropyrazolo[4,3-c]pyridin-3-yl]-2-oxoimidazol-1-yl}-2-methyl-3H-2λ^6-benzo[c][1,2]thiazol-2-one] gave a pEC50 in data set [1] (setting [5]) of 10.82.

In data set [1] (setting [5]), `CN=S1(=O)CCC(Oc2ccc(-n3ccn(-c4c5c(nn4-c4cc(C)c(F)c(C)c4)CCN(C(=O)c4cc6cc([C@H]7CCOC(C)(C)C7)ccc6n4[C@@]4(c6noc(=O)[nH]6)C[C@@H]4C)[C@H]5C)c3=O)cc2C2CC2)CC1` (stereo partly shown) [Compound 237] gave a pEC50 of 10.15.

What is called solubility is the dissolved amount per volume that the medium holds. A higher solubility goes with a readily soluble substance. On to `CNS(=O)(=O)c1ccc(-n2ccn(-c3c4c(nn3-c3cc(C)c(F)c(C)c3)CCN(C(=O)c3cc5cc(C6CCOCC6)ccc5n3[C@@]3(c5noc(=O)[nH]5)C[C@@H]3C)[C@H]4C)c2=O)cc1` [Compound C-3, reference compound], for which, in data set [2], the Papp at 2 h, 10 μM turned out to be 0.05 ×10⁻⁶ cm/s and the efflux ratio at 2 h, 10 μM came to 78.1. Further, the solubility at 4 h in data set [4] is 6.45 µM (≈ 5.65 µg/mL).
